Structures are written as SMILES.

Holding throughout (assay type): functional
Assay [1] deals with Drosophila melanogaster. The assay can be described thus: Relative toxicity, LD50 for rotenone Drosophila melanogaster adulticidal activity to LD50 for compound Drosophila melanogaster adulticidal activity.
For assay [2], the system named is Drosophila melanogaster. The assay can be described thus: Insecticidal activity against 5 to 7 days old adult Drosophila melanogaster assessed as mortality measured as inability to move compound treated in diet at 25 degC and >90% RH treated for 8 days.
Assay [3] deals with Drosophila melanogaster. The assay can be described thus: Relative toxicity, LC50 for rotenone Drosophila melanogaster larvicidal activity to LC50 for compound Drosophila melanogaster larvicidal activity.
Assay [4] concerns Drosophila melanogaster. The assay is described as follows: Insecticidal activity against Drosophila melanogaster larvae assessed as mortality compound treated in diet at 25 degC and >90% RH treated for 8 days. To be noted: feed or water, 192 h.

One may read the LC50 as the concentration that kills 50% of the test population. Consider `CCCC[C@@H]1OC(=O)[C@@H]2C=CCC[C@H]12` [CNIDILIDE], for which, in assay [1], the Ratio is listed as 0.4. In assay [2], the LD50 was found to be 9.17 µg. The RatioLC50 in assay [3] is recorded as under 0.001. Besides, the LC50 in assay [4] was over 16 mM.

Turning to `CCC/C=C1\OC(=O)C2=C1CCC=C2` [LIGUSTILIDE], in assay [1], the Ratio is listed as under 0.07. Further, in assay [2], the LD50 was over 50 µg. Also, the RatioLC50 in assay [3] amounted to 0.009. For the same compound, in assay [4], the LC50 was found to be 2.54 mM.

Consider `CCCC[C@@H]1OC(=O)c2ccccc21` [(3S)-BUTYLPHTHALIDE], for which the Ratio in assay [1] amounted to 0.62. Moreover, the LD50 in assay [2] worked out at 5.93 µg. In addition, the RatioLC50 in assay [3] was 0.004. In addition, the LC50 in assay [4] was found to be 4.99 mM.

For `CCCC[C@@H]1OC(=O)C2=CCCC[C@H]21` [NEOCNIDILIDE], the Ratio in assay [1] came to 0.34. Also, the LD50 in assay [2] stood at 10.82 µg. For the same compound, the RatioLC50 in assay [3] turned out to be 0.002. Moreover, in assay [4], the LC50 was found to be 9.9 mM.

`C=C(C)[C@H]1Cc2c(ccc3c2O[C@@H]2COc4cc(OC)c(OC)cc4[C@@H]2C3=O)O1` [ROTENONE]: in assay [1], the Ratio came out at 1. For the same compound, the LD50 in assay [2] turned out to be 3.68 µg. In addition, the RatioLC50 in assay [3] is 1. In assay [4], the LC50 came to 0.02 mM.

Source of the values: ChEMBL document CHEMBL3046543, “Larvicidal and adulticidal activity of alkylphthalide derivatives from rhizome of Cnidium officinale against Drosophila melanogaster” (J Agric Food Chem, 2005).
